Assay results taken from patent US8092838B2, “Use of hydrogen sulfide in the treatment of eye diseases” (The University of Houston System, priority 2005, dated 2012).
Where two headings read alike, the source gives them in different places.

Assays:
[1] = tested on: isolated porcine iris-ciliary bodies; assay type: cell-based; settings: for effect on NaHS-induced inhibition of evoked [3H]NE release: modifier 1 mM, NaHS 1 μM
isolated porcine iris = assay: Relaxation of carbachol-induced tone in isolated porcine iris muscle strips; assay type: cell-based
[2] = tested on: normotensive, conscious albino rabbits; assay: Intraocular pressure after topical application in normotensive, conscious albino rabbits (pneumatonometer)
Source text: A 1% dose of NaHS was applied topically to one eye and the saline vehicle to the other eye.
The effect of a generator of H2S in biological tissues (NaHS) on intraocular pressure in normotensive, conscious albino rabbits was examined. In the eyes of a rabbit, the desired intraocular pressure is around 20 mm Hg. While in human, the desired intraocular pressure in the eye is in the range of from about 12 mm Hg to 15 mm Hg. Ranges of about 18 to 24 mm Hg in a human eye are generally considered elevated. Two baseline intraocular pressure measurements were made in nine rabbits using a pneumatonometer (Medtronic, Model 30 Classic, Jacksonville, Fla.) at −1, and 0 hour after topical application of proparacaine 0.5%. NaHS (1%, dissolved in sterile saline solution) was applied topically to one eye of each animal while the saline vehicle was administered to the other (control) eyes. Intraocular pressures were measured in both eyes at +0.5, +1, +3, and +6 hours after instillation of the drug and vehicle.

[3] = tested on: isolated porcine iris-ciliary body; assay: Norepinephrine concentration in isolated porcine iris-ciliary body (HPLC); assay type: cell-based; settings: NaHS 30-300 μM
Source text: The data support results obtained from neurotransmitter release studies which show a decrease in norepinephrine output.
To determine the mechanism of action of H2S donors on sympathetic neurotransmitter pools in the anterior uvea, the direct effect of NaHS was studied on catecholamine (norepinephrine, epinephrine and dopamine) concentrations in porcine iris-ciliary bodies using […] Liquid Chromatography techniques. […] Data from this study supports the previous observation that H2S donors can reduce the release of [^3H]NE from isolated porcine irides. It appears that by reducing the availability of the neurotransmitter (norepinephrine), H2S can attenuate sympathetic neurotransmission in porcine anterior uvea.

sodium sulfide [Na2S]
basal tritium efflux [1]: without affecting basal tritium efflux | electrically-evoked [3H]NE release [1]: concentration-dependent inhibition | IC50 (isolated porcine iris): 70 µM

C#CCC(N)C(=O)O (stereo not shown) [PAG, propargylglycine, reference compound]
effect on NaHS-induced inhibition of evoked [3H]NE release [1]: blocked the inhibitory response elicited by NaHS | shift of concentration-response curves to NaHS (isolated porcine iris; modifier 1 mM): shifted concentration-response curves to NaHS to the right

S [NaHS, sodium hydrosulfide]
effect on intraocular pressure in the treated eyes ([2]; NaHS 1% in sterile saline, topical, one eye, measured +0.5, +1, +3, +6 hours): time-dependent significant (p<0.001) reduction in intraocular pressure | intraocular pressure in contralateral eyes treated with only the saline vehicle ([2]; NaHS 1% topical to the other eye): parallel (but smaller) decrease in intraocular pressure | hyperemia and/or papillary changes ([2]; NaHS 1% topical, experimental and control eyes, all times tested): No hyperemia and/or papillary changes were observed | time of maximum reduction in intraocular pressure ([2]; NaHS 1% topical, treated eyes): 3 h | intraocular pressure after 6 hours ([2]; NaHS 1% topical, treated eyes, 6 hours): remained depressed | stimulation-evoked [3H]NE release ([1]; 1 μM applied 8 minutes before and during S2): marked inhibition | electrically-evoked [3H]NE overflow ([1]; NaHS 0.1-100 μM): concentration-dependent inhibition | relaxation of tone induced by a submaximal concentration of carbachol (isolated porcine iris; NaHS 30 nM-100 μM): concentration-related relaxation | relative potency in eliciting relaxation of tone (isolated porcine iris; NaHS versus Na2S): more potent than Na2S | IC50 (isolated porcine iris; Sus scrofa, concentration range 30 nM to 300 μM): 7 µM | norepinephrine concentrations in the isolated porcine iris-ciliary body [3]: concentration-dependent decrease

COc1ccc(Cl)cc1C(=O)NCCc1ccc(S(=O)(=O)NC(=O)NC2CCCCC2)cc1 [glibenclamide]
shift of concentration-response curves to NaHS (isolated porcine iris; glibenclamide 300 μM): significant rightward shift

NOCC(=O)O [AOA, aminooxyacetic acid, reference compound]
effect on NaHS-induced inhibition of evoked [3H]NE release [1]: blocked the inhibitory response elicited by NaHS | shift of concentration-response curves to NaHS (isolated porcine iris; AOA 30 μM): significant (P<0.001) rightward shifts

N#CC[C@H](N)C(=O)O [BCA, β-cyano-L-alanine]
shift of concentration-response curves to NaHS (isolated porcine iris; modifier 1 mM): shifted concentration-response curves to NaHS to the right

C[S+](CC[C@H](N)C(=O)O)C[C@H]1O[C@@H](n2cnc3c(N)ncnc32)[C@H](O)[C@@H]1O (stereo partly drawn) [SAM, S-adenosyl-L-methionine]
effect on relaxations induced by the higher concentration of NaHS (isolated porcine iris): attenuated | shift of NaHS concentration-response curve (isolated porcine iris): significant leftward shift
